Among the test systems are T-47D breast; MDA-MB-231 breast; XF 498 CNS; M19-MEL melanoma; DLD-1 colon; SNB-78 CNS; HOP-18 NSCLC; MDA-N.
What all share (experiment): DTP human tumour cell line panel, 48 h

Several values for one entry are separate records, joined by “and”; a condition that tells them apart may be missing. Identical values can stand only once.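 Values below derive from 48-hour exposures of cells grown in 96-well plates, with endpoints linearly interpolated between the two concentrations bracketing the appropriate inhibition level. GI50 is the concentration that inhibits growth by half. TGI: total growth inhibition.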

As for `COc1ccc(-c2nn3ncccc3c2-c2ccnc(Nc3ccc4c(c3)OCCO4)n2)cc1`, in the experiment on T-47D breast, the GI50 was 4.58 µM and the TGI was > 25 µM. For the same molecule, in the experiment on MDA-MB-231 breast, the GI50 is 6.55 µM and the TGI is > 25 µM.

Consider `CCCCCCCCCC(=O)NC(Cc1ccc(O)cc1)C(=O)NCCCNCCCCNCCCNC(=O)[C@@H](N)CCCN=C(N)N` (some centres not stated), for which the TGI in the experiment with XF 498 CNS and with M19-MEL melanoma was > 100 µM in each case.

For the molecule `O=C(O)c1ccc(Nc2nc3nn(Cc4ccccc4)cc3c(=O)s2)cc1`, the TGI with DLD-1 colon, in the experiment on SNB-78 CNS, in the experiment with M19-MEL melanoma and with HOP-18 NSCLC was > 100 µM throughout.

Turning to `Cn1cc(C2=C(c3ccccc3C(F)(F)F)C(=O)NC2=O)c2ccccc21`, in the experiment with T-47D breast, the GI50 is 7.68 µM and the TGI is > 25 µM. In the experiment on MDA-MB-231 breast, the GI50 is 17.4 µM and the TGI is > 25 µM.

In the case of `CCOc1ccc(C(C)=O)cc1NC(=O)c1cccc(-c2nnn(CC)n2)c1`, in the experiment on MDA-MB-231 breast, the GI50 is 1.62 µM and the TGI came out at 58.5 µM.

Regarding `COc1ccc2nc3cccc([N+](=O)[O-])c3c(NCCNCCN(C)C)c2c1`, the GI50 is 0.176 µM in the experiment on MDA-N, 0.168 µM in the experiment with T-47D breast and 0.658 µM in the experiment with MDA-MB-231 breast. Further, the TGI in the experiment on MDA-N came to 0.502 µM; with T-47D breast, 7.93 µM; with MDA-MB-231 breast it was 4.17 µM.

`CNCCCNc1c2ccccc2nc2cccc([N+](=O)[O-])c12`: the TGI with DLD-1 colon was 0.0264 µM; in the experiment with SNB-78 CNS it was 0.0124 µM and 0.0131 µM; with MDA-N it was 0.00309 µM; in the experiment with T-47D breast, 0.0139 µM; in the experiment with XF 498 CNS, 0.00724 µM; in the experiment on M19-MEL melanoma, 0.0171 µM. In the experiment on MDA-MB-231 breast, this molecule came in with a TGI of 0.00522 µM.

`Cc1c(C)c2c(c(C)c1OCC(=O)O)CC[C@@](C)(CCC[C@@H](C)CCC[C@@H](C)CCCC(C)C)O2`: in the experiment on T-47D breast, the GI50 is 51.7 µM and the TGI was found to be 171 µM. For the same molecule, in the experiment on MDA-MB-231 breast, the GI50 was 95.2 µM and the total growth inhibition concentration (TGI) is 218 µM.

As for `CCN(CC)c1ccc(/C=N/NC(=O)CSc2nc3ccccc3c(=O)n2Cc2ccc(S(N)(=O)=O)cc2)c(O)c1`, in the experiment on T-47D breast, the GI50 was 0.925 µM and the TGI is > 100 µM. For the same molecule, in the experiment on MDA-MB-231 breast, the GI50 was 0.643 µM and the concentration for total growth inhibition (TGI) is > 100 µM.

For `COC(=O)CC(=O)NCC1=CCC(=O)CC1`, the TGI in the experiment on DLD-1 colon, in the experiment on SNB-78 CNS, in the experiment on XF 498 CNS and in the experiment on M19-MEL melanoma was > 100 µM each time.

For `OC12CCC3(O)c4ccccc4C3C1c1ccccc12` (configuration not stated), the TGI with SNB-78 CNS, with XF 498 CNS, in the experiment with M19-MEL melanoma and with HOP-18 NSCLC was > 100 µM each time.

Consider `CC12OC(C(=O)C13CCC3)C1C(=O)c3ccc4c(ccc5ccccc54)c3C(=O)C12` (configuration not stated), for which, in the experiment on T-47D breast, the GI50 was 3.22 µM and the TGI is 11.2 µM.

As to `N#C/C(=C\c1ccccc1)C(NO)Nc1ccccc1` (configuration not stated), the TGI with DLD-1 colon, in the experiment with SNB-78 CNS, in the experiment on M19-MEL melanoma and in the experiment on HOP-18 NSCLC was > 100 µM each time.

With `C=Cc1c(C)c2cc3[nH]c(cc4nc(cc5nc(cc1[nH]2)C(C)=C5CCC(=O)N(CC)CC)C(CCC(=O)N(CC)CC)=C4C)c(C)c3C=C`, the TGI in the experiment on DLD-1 colon, with SNB-78 CNS and in the experiment on M19-MEL melanoma was > 100 µM in each case.

Regarding `S=C(CSc1ccccc1)Nc1cccc2ccccc12`, the total growth inhibition concentration (TGI) in the experiment on MDA-N, in the experiment on T-47D breast and with MDA-MB-231 breast was > 100 µM throughout.

For `CC[C@@H](O)C[C@H]1CCC[C@@]2(C[C@@H]3OC(=O)/C=C/[C@@](C)(O)[C@@H](O)[C@H](C)[C@@H](O)[C@H](OC4CCC(N(C)C)C(C)O4)[C@@H](O)[C@](C)(O)CCCCC/C=C/[C@@H]4CC(C)(C)O[C@@]4(O)C[C@H](O2)[C@H]3C)O1` (some centres not stated), the TGI in the experiment on MDA-N came to 20.8 µM; in the experiment with T-47D breast, 26.3 µM; with MDA-MB-231 breast, 34.1 µM.

As for `OC(COc1ccccc1)CN1CCCCC1` (configuration not stated), the TGI in the experiment with MDA-N, with T-47D breast and with MDA-MB-231 breast was > 100 µM each time.

With `NCCOc1ncccc1/C=C1\c2ccccc2-c2ccc([N+](=O)[O-])cc21`, the GI50 is 0.0283 µM with T-47D breast and 0.206 µM with MDA-MB-231 breast. The TGI in the experiment with T-47D breast was 0.305 µM; in the experiment on MDA-MB-231 breast it was 0.613 µM.

Consider `Cc1noc(C)c1-c1cnc2c(-c3ccc(C(=O)O)cc3)cn([C@@H](C)c3ccccn3)c2c1`, for which the GI50 was 0.623 µM with T-47D breast and 0.518 µM with MDA-MB-231 breast. Moreover, the TGI in the experiment with T-47D breast and in the experiment on MDA-MB-231 breast was > 100 µM in each case.

As for `COc1ccc2c(c1)O/C(=C\c1cccc(OCC(=O)Nc3nc(C)c(C)s3)c1)C2=O`, in the experiment with T-47D breast, the GI50 was 8.76 µM and the total growth inhibition concentration (TGI) is > 100 µM. Besides, the GI50 in the experiment with MDA-MB-231 breast was 0.95 µM.

Consider `CCN(CC)c1ccc2nc3ccc(N=Nc4ccc(O)cc4)cc3[n+](-c3ccccc3)c2c1`, for which, in the experiment with T-47D breast, the GI50 is 3.6 µM and the TGI is 84.1 µM.

On to `COC(=O)CCC(=O)N1CC1C` (configuration not stated), for which the TGI in the experiment on DLD-1 colon, in the experiment on XF 498 CNS, in the experiment with M19-MEL melanoma and with HOP-18 NSCLC was > 100 µM each time.

Turning to `CC(=O)O[C@H](C[C@H](C(C)C)N(C)C(=O)[C@@H](NC(=O)[C@H]1CCCCN1C)C(C)C)c1cccc(C(=O)N[C@@H](Cc2ccccc2)C[C@H](C)C(=O)O)n1`, in the experiment with T-47D breast, the concentration for 50% growth inhibition (GI50) was 0.0818 µM and the TGI is > 25 µM. In the experiment with MDA-MB-231 breast, the GI50 was 0.0332 µM and the TGI is 10.1 µM.

As to `Cc1ccc(C2C(Cl)C(=O)N2NC(=O)c2ccc(N)cc2)cc1` (configuration not stated), the TGI stood at 40.2 µM with DLD-1 colon, 46.2 µM in the experiment with SNB-78 CNS, 26.5 µM in the experiment with XF 498 CNS and 38.9 µM with M19-MEL melanoma.

Regarding `COc1cc(-c2cc3ncccc3c3[nH]c(=O)c4cccnc4c23)cc(OC)c1OC`, the results for the GI50 in the experiment on T-47D breast and in the experiment with MDA-MB-231 breast were 0.789 µM and 1.54 µM, respectively. Besides, the concentration for total growth inhibition (TGI) in the experiment on T-47D breast and in the experiment with MDA-MB-231 breast was > 100 µM throughout.

For `COc1cc(CN(c2ccc(C)cc2)C2OC(=O)c3ccccc32)cc(OC)c1OC` (configuration not stated), in the experiment on MDA-MB-231 breast, the GI50 was 0.846 µM and the TGI was > 100 µM.

Take `C/C(=N\NC(N)=S)c1sc(-n2nc(-c3ccccc3)cc2-c2ccccc2)nc1C`: the TGI in the experiment with MDA-N, with T-47D breast and with MDA-MB-231 breast was > 100 µM in each case.

By GI50 is commonly meant the concentration giving 50% growth inhibition. As usually defined, the TGI is the concentration giving total growth inhibition. The low end stands for greater sensitivity of the cells, the high end for lower sensitivity of the cells.
